From US20260015325A1, “ALKOXY HETEROARYL- CARBOXAMIDE OR THIOAMIDE COMPOUNDS” (SYNGENTA CROP PROTECTION AG, priority 2022, published 2026)

Legend:
Type in all cases: in vivo
[1] = tested on: Myzus persicae (Green Peach Aphid); experiment: Myzus persicae (Green Peach Aphid): systemic activity, pea seedlings; conditions: 144 h, test rate of 24 ppm, systemic, roots of infested pea seedlings in test solution, 6 days, read-out: mortality
Method: Example B7: Myzus persicae (Green Peach Aphid). Systemic Activity
Roots of pea seedlings infested with an aphid population of mixed ages were placed directly into aqueous test solutions prepared from 10′000 DMSO stock solutions. The samples were assessed for mortality 6 days after placing seedlings into test solutions.

[2] = tested on: Myzus persicae (Green Peach Aphid); experiment: Myzus persicae (Green Peach Aphid): intrinsic activity, sucrose solution; conditions: 120 h, test rate of 12 ppm, intrinsic, mixed with sucrose solution under Parafilm, 5 days after infestation, read-out: mortality
Text: Example B8: Myzus persicae (Green Peach Aphid). Intrinsic Activity
Test compounds prepared from 10′000 ppm DMSO stock solutions were applied by pipette into 24-well microtiter plates and mixed with sucrose solution. The plates were closed with a stretched Parafilm. A plastic stencil with 24 holes was placed onto the plate and infested pea seedlings were placed directly on the Parafilm. The infested plate was closed with a gel blotting paper and another plastic stencil and then turned upside down. The samples were assessed for mortality 5 days after infestation.

[3] = tested on: Tetranychus urticae (Two-Spotted Spider Mite); experiment: whole plant or invertebrate; conditions: foliar, 192 h, application rate of 200 ppm, mixed population (mobile stages) on sprayed bean leaf discs, 8 days after infestation, read-out: mortality
Method: Example B11: Tetranychus urticae (Two-Spotted Spider Mite): Feeding/Contact Activity
Bean leaf discs on agar in 24-well microtiter plates were sprayed with aqueous test solutions prepared from 10′000 ppm DMSO stock solutions. After drying the leaf discs were infested with a mite population of mixed ages. The samples were assessed for mortality on mixed population (mobile stages) 8 days after infestation.

[4] = tested on: Euschistus heros (Neotropical Brown Stink Bug); experiment: Euschistus heros (Neotropical Brown Stink Bug), soybean leaves; conditions: 120 h, application rate of 200 ppm, N2 nymphs on sprayed soybean leaves, 5 days after infestation, read-out: effect in at least one of the two categories (mortality or growth inhibition)
Method: Example B4: Euschistus heros (Neotropical Brown Stink Bug)
Soybean leaves on agar in 24-well microtiter plates were sprayed with aqueous test solutions prepared from 10′000 ppm DMSO stock solutions. After drying the leaves were infested with N2 nymphs. The samples were assessed for mortality and growth inhibition in comparison to untreated samples 5 days after infestation.

[5] = tested on: Myzus persicae (Green Peach Aphid); experiment: Myzus persicae (Green Peach Aphid): feeding/contact activity, sunflower leaf discs; conditions: foliar, 144 h, application rate of 200 ppm, mixed ages on sprayed sunflower leaf discs, 6 days after infestation, read-out: mortality
Method: Example B6: Myzus persicae (Green Peach Aphid): Feeding/Contact Activity
Sunflower leaf discs were placed onto agar in a 24-well microtiter plate and sprayed with aqueous test solutions prepared from 10′000 ppm DMSO stock solutions. After drying, the leaf discs were infested with an aphid population of mixed ages. The samples were assessed for mortality 6 days after infestation.

[6] = tested on: Bemisia tabaci (Cotton White Fly); experiment: Bemisia tabaci (Cotton White Fly): feeding/contact activity, cotton leaf discs; conditions: foliar, 144 h, application rate of 200 ppm, adult white flies on sprayed cotton leaf discs, 6 days after incubation, read-out: mortality
Method: Example B1: Bemisia tabaci (Cotton White Fly): Feeding/Contact Activity
Cotton leaf discs were placed on agar in 24-well microtiter plates and sprayed with aqueous test solutions prepared from 10′000 ppm DMSO stock solutions. After drying the leaf discs were infested with adult white flies. The samples were checked for mortality 6 days after incubation.

C[C@@H](COc1cnc(Cl)c(C(=O)NC2CC2)c1)NS(=O)(=O)C(F)F [Compound P-10, 2-chloro-N-cyclopropyl-5-[(2S)-2-(difluoromethylsulfonylamino)propoxy]pyridine-3-carboxamide]
mortality at 24 ppm [1]: ≥ 80% | mortality at 12 ppm [2]: ≥ 80% | mortality at 200 ppm [3]: ≥ 80%

COCN([C@@H](C)COc1cnc(Cl)c(C(=O)N(C(C)=O)C2CC2)c1)S(=O)(=O)C(F)(F)F [Compound P-12, N-acetyl-2-chloro-N-cyclopropyl-5-[(2S)-2-[methoxymethyl(trifluoromethylsulfonyl)amino]propoxy]pyridine-3-carboxamide]
mortality at 12 ppm [2]: ≥ 80% | mortality at 200 ppm [3]: ≥ 80% | percent effect (mortality or growth inhibition) at 200 ppm [4]: ≥ 80% | mortality at 200 ppm [5]: ≥ 80% | mortality at 200 ppm [6]: ≥ 80%

CC(C)C(=O)OCN([C@@H](C)COc1cnc(Cl)c(C(=O)NC2CC2)c1)S(=O)(=O)C(F)(F)F [Compound P-13, [[(1S)-2-[[6-chloro-5-(cyclopropylcarbamoyl)-3-pyridyl]oxy]-1-methyl-ethyl]-(trifluoromethylsulfonyl)amino]methyl 2-methylpropanoate]
mortality at 24 ppm [1]: ≥ 80% | mortality at 12 ppm [2]: ≥ 80% | mortality at 200 ppm [3]: ≥ 80% | mortality at 200 ppm [5]: ≥ 80% | mortality at 200 ppm [6]: ≥ 80%

C[C@@H](COc1cnc(Cl)c(C(=O)NC2CC2)c1)N(C)S(=O)(=O)C(F)(F)F [Compound P-16, 2-chloro-N-cyclopropyl-5-[(2S)-2-[methyl(trifluoromethylsulfonyl)amino]propoxy]pyridine-3-carboxamide]
mortality at 24 ppm [1]: ≥ 80% | mortality at 12 ppm [2]: ≥ 80% | mortality at 200 ppm [3]: ≥ 80% | percent effect (mortality or growth inhibition) at 200 ppm [4]: ≥ 80% | mortality at 200 ppm [5]: ≥ 80%

O=C(NC1CC1)c1cc(OCCNS(=O)(=O)C(F)(F)F)cnc1Cl [Compound P-17, 2-chloro-N-cyclopropyl-5-[2-(trifluoromethylsulfonylamino)ethoxy]pyridine-3-carboxamide]
mortality at 12 ppm [2]: ≥ 80% | mortality at 200 ppm [5]: ≥ 80% | mortality at 200 ppm [6]: ≥ 80%

Cc1cc(Cl)cnc1NC(=O)c1cc(OC[C@H](C)NS(=O)(=O)C(F)(F)F)cnc1Cl [Compound P-20, 2-chloro-N-(5-chloro-3-methyl-2-pyridyl)-5-[(2S)-2-(trifluoromethylsulfonylamino)propoxy]pyridine-3-carboxamide]
mortality at 12 ppm [2]: ≥ 80% | mortality at 200 ppm [3]: ≥ 80% | mortality at 200 ppm [6]: ≥ 80%

Cc1ncc(OC[C@H](C)NS(=O)(=O)C(F)(F)F)cc1C(=O)NC12CC(C1)C2 [Compound P-26, N-(1-bicyclo[1.1.1]pentanyl)-2-methyl-5-[(2S)-2-(trifluoromethylsulfonylamino)propoxy]pyridine-3-carboxamide]
mortality at 24 ppm [1]: ≥ 80% | mortality at 12 ppm [2]: ≥ 80% | mortality at 200 ppm [3]: ≥ 80% | mortality at 200 ppm [5]: ≥ 80%

Cc1ncc(OC[C@H](C)NS(=O)(=O)C(F)(F)F)cc1C(=O)NCc1ccc(Cl)cn1 [Compound P-28, N-[(5-chloro-2-pyridyl)methyl]-2-methyl-5-[(2S)-2-(trifluoromethylsulfonylamino)propoxy]pyridine-3-carboxamide]
mortality at 24 ppm [1]: ≥ 80% | mortality at 200 ppm [6]: ≥ 80%

Cc1ncc(OC[C@H](C)NS(=O)(=O)C(F)(F)F)cc1C(=O)NC(C)C1CC1 (stereo partly drawn) [Compound P-31, N-(1-cyclopropylethyl)-2-methyl-5-[(2S)-2-(trifluoromethylsulfonylamino)propoxy]pyridine-3-carboxamide]
mortality at 200 ppm [3]: ≥ 80% | mortality at 200 ppm [6]: ≥ 80%

CCNC(=O)c1cc(OC[C@H](C)NS(=O)(=O)C(F)(F)F)cnc1Cl [Compound P-50, 2-chloro-N-ethyl-5-[(2S)-2-(trifluoromethylsulfonylamino)propoxy]pyridine-3-carboxamide]
mortality at 12 ppm [2]: ≥ 80% | percent effect (mortality or growth inhibition) at 200 ppm [4]: ≥ 80% | mortality at 200 ppm [5]: ≥ 80%

C#CCNC(=O)c1cc(OC[C@H](C)NS(=O)(=O)C(F)(F)F)cnc1Cl [Compound P-52, 2-chloro-N-prop-2-ynyl-5-[(2S)-2-(trifluoromethylsulfonylamino)propoxy]pyridine-3-carboxamide]
mortality at 200 ppm [3]: ≥ 80% | mortality at 200 ppm [5]: ≥ 80% | mortality at 200 ppm [6]: ≥ 80%

C[C@@H](COc1cnc(Cl)c(C(=O)NC2CON(CC(F)(F)F)C2=O)c1)NS(=O)(=O)C(F)(F)F (stereo partly drawn) [Compound P-54, 2-chloro-N-[3-oxo-2-(2,2,2-trifluoroethyl)isoxazolidin-4-yl]-5-[(2S)-2-(trifluoromethylsulfonylamino)propoxy]pyridine-3-carboxamide]
mortality at 24 ppm [1]: ≥ 80% | mortality at 12 ppm [2]: ≥ 80% | mortality at 200 ppm [5]: ≥ 80% | mortality at 200 ppm [6]: ≥ 80%

C[C@@H](COc1cnc(Cl)c(C(=O)Nc2ccccc2)c1)NS(=O)(=O)C(F)(F)F [Compound P-56, 2-chloro-N-phenyl-5-[(2S)-2-(trifluoromethylsulfonylamino)propoxy]pyridine-3-carboxamide]
mortality at 200 ppm [3]: ≥ 80% | mortality at 200 ppm [6]: ≥ 80%

C[C@@H](COc1cnc(Cl)c(C(=O)NC(C)(C)C#N)c1)NS(=O)(=O)C(F)(F)F [Compound P-57, 2-chloro-N-(1-cyano-1-methyl-ethyl)-5-[(2S)-2-(trifluoromethylsulfonylamino)propoxy]pyridine-3-carboxamide]
mortality at 24 ppm [1]: ≥ 80% | mortality at 12 ppm [2]: ≥ 80% | mortality at 200 ppm [3]: ≥ 80% | mortality at 200 ppm [5]: ≥ 80% | mortality at 200 ppm [6]: ≥ 80%

COCN([C@@H](C)COc1cnc(C)c(C(=O)NC2CC2)c1)S(=O)(=O)C(F)(F)F [Compound P-61, N-cyclopropyl-5-[(2S)-2-[methoxymethyl (trifluoromethylsulfonyl)amino]propoxy]-2-methyl-pyridine-3-carboxamide]
percent effect (mortality or growth inhibition) at 200 ppm [4]: ≥ 80%

Cc1cnc(OC[C@H](C)NS(=O)(=O)C(F)(F)F)cc1C(=O)NC12CC(C1)C2 [Compound P-66, N-(1-bicyclo[1.1.1]pentanyl)-5-methyl-2-[(2S)-2-(trifluoromethylsulfonylamino)propoxy]pyridine-4-carboxamide]
percent effect (mortality or growth inhibition) at 200 ppm [4]: ≥ 80%

Cc1cnc(OC[C@H](C)NS(=O)(=O)C(F)(F)F)cc1C(=O)NC1CCN(CC(F)(F)F)C1=O (stereo partly drawn) [Compound P-70, 5-methyl-N-[2-oxo-1-(2,2,2-trifluoroethyl)pyrrolidin-3-yl]-2-[(2S)-2-(trifluoromethylsulfonylamino)propoxy]pyridine-4-carboxamide]
mortality at 200 ppm [5]: ≥ 80% | mortality at 200 ppm [6]: ≥ 80%

Cc1cnc(OC[C@H](C)NS(=O)(=O)C(F)(F)F)cc1C(=O)NCCOc1ccccc1F [Compound P-71, N-[2-(2-fluorophenoxy)ethyl]-5-methyl-2-[(2S)-2-(trifluoromethylsulfonylamino)propoxy]pyridine-4-carboxamide]
percent effect (mortality or growth inhibition) at 200 ppm [4]: ≥ 80%

COCN([C@@H](C)COc1cc(C(=O)NC2(C#N)CC2)c(Br)cn1)S(=O)(=O)C(F)(F)F [Compound P-82, 5-bromo-N-(1-cyanocyclopropyl)-2-[(2S)-2-[methoxymethyl(trifluoromethylsulfonyl)amino]propoxy]pyridine-4-carboxamide]
mortality at 200 ppm [3]: ≥ 80% | mortality at 200 ppm [6]: ≥ 80%

C[C@@H](COc1cc(C(=O)NC2CC2)c(Br)cn1)NS(=O)(=O)C(F)(F)F [Compound P-83, 5-bromo-N-cyclopropyl-2-[(2S)-2-(trifluoromethylsulfonylamino)propoxy]pyridine-4-carboxamide]
mortality at 24 ppm [1]: ≥ 80% | mortality at 12 ppm [2]: ≥ 80% | mortality at 200 ppm [5]: ≥ 80%
